One test deals with T1, ENPP3 (Homo sapiens, UniProt O14638).
T1 sequence (O14638 1-875): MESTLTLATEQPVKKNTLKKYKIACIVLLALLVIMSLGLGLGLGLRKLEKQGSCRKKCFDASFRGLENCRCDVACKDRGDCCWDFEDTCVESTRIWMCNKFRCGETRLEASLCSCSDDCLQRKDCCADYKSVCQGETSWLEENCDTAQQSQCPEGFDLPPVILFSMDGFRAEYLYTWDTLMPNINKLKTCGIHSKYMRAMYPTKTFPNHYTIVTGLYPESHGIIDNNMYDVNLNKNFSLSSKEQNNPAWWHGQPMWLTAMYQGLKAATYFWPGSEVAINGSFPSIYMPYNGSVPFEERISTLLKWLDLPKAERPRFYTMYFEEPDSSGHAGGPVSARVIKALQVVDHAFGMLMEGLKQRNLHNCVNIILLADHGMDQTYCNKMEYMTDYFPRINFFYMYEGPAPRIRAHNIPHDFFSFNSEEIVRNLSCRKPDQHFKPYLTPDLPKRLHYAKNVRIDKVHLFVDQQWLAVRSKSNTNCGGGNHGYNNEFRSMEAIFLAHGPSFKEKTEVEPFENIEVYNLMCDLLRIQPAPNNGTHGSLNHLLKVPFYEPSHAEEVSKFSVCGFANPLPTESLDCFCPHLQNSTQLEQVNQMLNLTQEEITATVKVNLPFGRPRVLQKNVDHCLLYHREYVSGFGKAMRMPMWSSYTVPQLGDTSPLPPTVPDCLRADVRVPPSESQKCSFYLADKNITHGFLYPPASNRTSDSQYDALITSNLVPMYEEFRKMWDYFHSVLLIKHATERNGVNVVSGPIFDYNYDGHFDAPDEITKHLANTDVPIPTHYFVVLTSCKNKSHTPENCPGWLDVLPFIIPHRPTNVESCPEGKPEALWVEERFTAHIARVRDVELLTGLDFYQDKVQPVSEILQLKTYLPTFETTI
The test can be described thus: ENPP3 Km ATP assay. It counts as biochemical. Particulars: ATP at Km.

The next test has as its target T2, human ENPP1 (Homo sapiens, UniProt P22413).
T2 construct: made in house
T2 sequence (P22413 1-925): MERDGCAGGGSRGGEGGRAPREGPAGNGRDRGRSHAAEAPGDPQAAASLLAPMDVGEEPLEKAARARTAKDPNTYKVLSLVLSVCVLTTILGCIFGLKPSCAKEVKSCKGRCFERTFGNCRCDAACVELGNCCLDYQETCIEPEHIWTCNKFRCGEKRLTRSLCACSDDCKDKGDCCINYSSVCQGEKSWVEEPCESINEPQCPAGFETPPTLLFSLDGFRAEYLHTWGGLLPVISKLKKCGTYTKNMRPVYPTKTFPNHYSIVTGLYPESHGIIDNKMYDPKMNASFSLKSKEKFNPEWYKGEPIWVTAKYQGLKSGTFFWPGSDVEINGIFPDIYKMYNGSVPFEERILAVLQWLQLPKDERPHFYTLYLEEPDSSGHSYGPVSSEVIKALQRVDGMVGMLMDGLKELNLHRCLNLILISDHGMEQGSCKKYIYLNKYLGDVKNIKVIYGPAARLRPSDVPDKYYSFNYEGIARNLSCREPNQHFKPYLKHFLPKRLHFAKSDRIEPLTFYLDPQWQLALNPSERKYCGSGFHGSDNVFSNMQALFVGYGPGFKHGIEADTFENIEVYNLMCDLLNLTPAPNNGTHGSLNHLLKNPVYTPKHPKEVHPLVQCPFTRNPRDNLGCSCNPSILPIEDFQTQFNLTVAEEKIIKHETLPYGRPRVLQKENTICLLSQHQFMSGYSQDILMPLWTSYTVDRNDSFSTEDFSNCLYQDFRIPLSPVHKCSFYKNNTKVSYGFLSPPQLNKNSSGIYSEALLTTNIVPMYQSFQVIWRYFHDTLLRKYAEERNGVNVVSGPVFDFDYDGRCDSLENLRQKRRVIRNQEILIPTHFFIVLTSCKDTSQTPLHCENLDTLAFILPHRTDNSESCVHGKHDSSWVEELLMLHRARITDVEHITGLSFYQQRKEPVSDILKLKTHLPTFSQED
The test can be described thus: ENPP1 assay with ATP substrate (Transcreener AMP2/GMP2 TR-FRET). It counts as biochemical. Conditions: 1 hour at room temperature. An outline of the steps: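 Reaction ran 1 h at room temperature in pH 7.5 Tris with MgCl2, TCEP, Tween 20 and 1% DMSO. ATP was added as a 300 nM stock and enzyme as an 8.5 μM stock. After EDTA stop, AMP was read by TR-FRET tracer displacement. Percent inhibition used enzyme/no-enzyme controls; IC50 was fitted with a variable slope.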
In general terms: In TR-FRET formats the signal depends on donor and acceptor labels being close together.

Some results are limits rather than exact numbers.

In the case of `CCn1ncc2c(NCc3ccc(S(N)(=O)=O)cc3)nc(OCCC(C)(C)OC)nc21` [Example 2.98, 4-((1-Ethyl-6-(3-methoxy-3-methylbutoxy)-1H-pyrazolo[3,4-d]pyrimidin-4-yl)aminomethyl)-benzenesulfonamide], the 50% inhibitory concentration (IC50) (in general, the midpoint of a concentration-inhibition curve) on ENPP3 was 1 to 20 µM; on human ENPP1, under 0.1 µM.
`Cn1ncc2c(NCc3ccc(S(N)(=O)=O)cc3)nc(OCC(F)(F)F)nc21` [Example 2.99, 4-((6-(2,2,2-Trifluoroethoxy)-1-methyl-1H-pyrazolo[3,4-d]pyrimidin-4-yl)aminomethyl)-benzenesulfonamide]: the IC50 against ENPP3 and at human ENPP1 was 0.1 to 1 µM throughout.
For the compound `CC(C)CCOc1nc(NCc2ccc(S(N)(=O)=O)cc2)c2cnn(C)c2n1` [Example 2.101, 4-((1-Methyl-6-(3-methylbutoxy)-1H-pyrazolo[3,4-d]pyrimidin-4-yl)aminomethyl)-benzenesulfonamide], the IC50 on ENPP3 was 0.1 to 1 µM; at human ENPP1, under 0.1 µM.
For `CCn1ncc2c(NCc3ccc(S(N)(=O)=O)cc3)nc(OCCC(C)C)nc21` [Example 2.102, 4-((1-Ethyl-6-(3-methylbutoxy)-1H-pyrazolo[3,4-d]pyrimidin-4-yl)aminomethyl)-benzenesulfonamide] the same measures were 0.1 to 1 µM and under 0.1 µM.
For `CSc1nc(NCc2ccc(S(N)(=O)=O)cc2)c2cnn(C)c2n1` [Example 2.107, 4-((1-Methyl-6-(methylsulfanyl)-1H-pyrazolo[3,4-d]pyrimidin-4-yl)aminomethyl)-benzenesulfonamide] the same measures were under 0.1 µM and under 0.1 µM.
For `CCSc1nc(NCc2ccc(S(N)(=O)=O)cc2)c2cnn(C)c2n1` [Example 2.108, 4-((6-(Ethylsulfanyl)-1-methyl-1H-pyrazolo[3,4-d]pyrimidin-4-yl)aminomethyl)-benzenesulfonamide] the same measures were under 0.1 µM and under 0.1 µM.
`CCSc1nc(NCc2ccc(S(N)(=O)=O)cc2)c2cnn(CC)c2n1` [Example 2.109, 4-((1-Ethyl-6-(ethylsulfanyl)-1H-pyrazolo[3,4-d]pyrimidin-4-yl)aminomethyl)-benzenesulfonamide]: the figures for the IC50 on ENPP3 and against human ENPP1 were 0.1 to 1 µM and under 0.1 µM, respectively.
For `CCSc1nc(NCc2ccc(S(N)(=O)=O)cc2)c2c(Br)nn(C)c2n1` [Example 2.110, 4-((3-Bromo-6-(ethylsulfanyl)-1-methyl-1H-pyrazolo[3,4-d]pyrimidin-4-yl)aminomethyl)-benzenesulfonamide] the same measures were under 0.1 µM and under 0.1 µM.
For `CCCSc1nc(NCc2ccc(S(N)(=O)=O)cc2)c2cnn(C)c2n1` [Example 2.111, 4-((1-Methyl-6-(propylsulfanyl)-1H-pyrazolo[3,4-d]pyrimidin-4-yl)aminomethyl)-benzenesulfonamide], the IC50 against ENPP3 is 0.1 to 1 µM; against human ENPP1 it was under 0.1 µM.
As to `CCn1ncc2c(NCc3ccc(S(N)(=O)=O)cc3)ccnc21` [Example 2.122, 4-((1-Ethyl-1H-pyrazolo[3,4-b]pyridin-4-yl)aminomethyl)benzenesulfonamide], the figures for the IC50 against ENPP3 and at human ENPP1 were 1 to 20 µM and under 0.1 µM, respectively.
On to `Cn1nc(-c2ccccn2)c2c(NCc3ccc(S(N)(=O)=O)cc3)nc(Cl)nc21` [Example 2.124, 4-((6-Chloro-1-methyl-3-(2-pyridyl)-1H-pyrazolo[3,4-d]pyrimidin-4-yl)aminomethyl)benzenesulfonamide], for which the IC50 against ENPP3 and against human ENPP1 was 0.1 to 1 µM throughout.
With `Cc1nc(NCc2ccc(S(N)(=O)=O)cc2)c2c(C3=CCCC3)nn(C)c2n1` [Example 2.127, 4-((3-(1-Cyclopenten-1-yl)-1,6-dimethyl-1H-pyrazolo[3,4-d]pyrimidin-4-yl)aminomethyl)benzenesulfonamide], the IC50 lay in the range of 0.1 to 1 µM at ENPP3 and 1 to 20 µM at human ENPP1.
The corresponding values for `Cn1nc(Br)c2c(NCc3ccc(S(N)(=O)=O)cc3)nc(N3CCCCC3)nc21` [Example 2.131, 4-((3-Bromo-1-methyl-6-piperidino-1H-pyrazolo[3,4-d]pyrimidin-4-yl)aminomethyl)benzenesulfonamide] are under 0.1 µM and 1 to 20 µM.
For `Cn1nc(-c2ccccc2)c2c(NCc3ccc(S(N)(=O)=O)cc3)nc(N3CCCCC3)nc21` [Example 2.132, 4-((1-Methyl-3-phenyl-6-piperidino-1H-pyrazolo[3,4-d]pyrimidin-4-yl)aminomethyl)benzenesulfonamide], the IC50 is 0.1 to 1 µM at ENPP3 and under 0.1 µM on human ENPP1.
For `Cn1ncc2c(NCc3ccc(S(N)(=O)=O)cc3)nc(C(F)(F)F)nc21` [Example 2.133, 4-((1-Methyl-6-trifluoromethyl-1H-pyrazolo[3,4-d]pyrimidin-4-yl)aminomethyl)-benzenesulfonamide] the same measures were 1 to 20 µM and 1 to 20 µM.
The corresponding values for `Cn1ncc2c(NCc3ccc(S(N)(=O)=O)cc3)cc(C3CC3)nc21` [Example 2.134, 4-((6-Cyclopropyl-1-methyl-1H-pyrazolo[3,4-b]pyridin-4-yl)aminomethyl)-benzenesulfonamide] are 1 to 20 µM and 1 to 20 µM.
As to `Cc1nc(NCc2ccc(S(N)(=O)=O)cc2)c2c(C3CCCC3)nn(C)c2n1` [Example 2.135, 4-((3-Cyclopentyl-1,6-dimethyl-1H-pyrazolo[3,4-d]pyrimidin-4-yl)aminomethyl)benzenesulfonamide], the IC50 on ENPP3 and against human ENPP1 was 1 to 20 µM throughout.
Regarding `CN(Cc1ccc(S(N)(=O)=O)cc1)c1ncnc2c1cnn2C` [Example 2.136, 4-(N-methyl-N-(1-methyl-1H-pyrazolo[3,4-d]pyrimidin-4-yl)aminomethyl)-benzenesulfonamide], the IC50 was 0.1 to 1 µM against ENPP3 and 1 to 20 µM on human ENPP1.
With `Cn1ncc2c(OCc3ccc(S(N)(=O)=O)cc3)ncnc21` [Example 2.137, 4-((1-Methyl-1H-pyrazolo[3,4-d]pyrimidin-4-yl)oxymethyl)benzenesulfonamide], the IC50 on ENPP3 and at human ENPP1 was 1 to 20 µM each time.
With `CCNc1nc(NCc2ccc(S(N)(=O)=O)cn2)c2cnn(C)c2n1` [Example 2.139, 6-(((6-(Ethylamino)-1-methyl-1H-pyrazolo[3,4-d]pyrimidin-4-yl)amino)methyl)pyridine-3-sulfonamide], the IC50 at ENPP3 and at human ENPP1 was 1 to 20 µM throughout.
For `Cn1ncc2c(NCc3ccc(S(N)(=O)=O)cc3F)nc(Cl)nc21` [Example 2.140, 4-(((6-Chloro-1-methyl-1H-pyrazolo[3,4-d]pyrimidin-4-yl)amino)methyl)-3-fluorobenzenesulfonamide], the IC50 on ENPP3 and at human ENPP1 was 0.1 to 1 µM in each case.
In the case of `CCNc1nc(NCc2ccc(S(N)(=O)=O)cc2F)c2cnn(C)c2n1` [Example 2.141, 4-(((6-(Ethylamino)-1-methyl-1H-pyrazolo[3,4-d]pyrimidin-4-yl)amino)methyl)-3-fluorobenzenesulfonamide], the IC50 at ENPP3 and at human ENPP1 was 0.1 to 1 µM throughout.

Values taken from patent US12643910B2, “Substituted pyrazolo[3,4-b]pyridines as ectonucleotide pyrophosphatase/phosphodiesterase 1 (ENPP1) modulators” (SANFORD BURNHAM PREBYS MEDICAL DISCOVERY INSTITUTE, priority 2019, dated 2026).
